Source: paper PMC8301114, “LC-ESI-LTQ-Orbitrap-MS for Profiling the Distribution of Oleacein and Its Metabolites in Rat Tissues” (Antioxidants, 2021)
Several values for one entry are separate records, joined by “and”; a condition that tells them apart may be missing. Identical values can stand only once. Marks after values point to notes of the source that are not given here.

Experiments:
[1] = Tissue distribution of OLEA and its metabolites after intragastric administration of ROO containing OLEA (LC-ESI-LTQ-Orbitrap-MS); assay type: in vivo, male Sprague–Dawley rats; conditions: for Tissue concentration in heart / Concentration in liver / Concentration in small intestine / Concentration in stomach: mean ± SD; for Detection in heart, spleen, thyroids, lungs, brain, kidney, and skin: 1, 2 and 4.5 h after intragastric OLEA in ROO
Description: (§1) In this study, male Sprague–Dawley rats (body weight 227 ± 11 g) were obtained from Envigo RMS Spain SL (Sant Feliu de Codines, Barcelona, Spain). The animals were acclimated for at least 1 week before the initiation of dosing with free access to food and water. They were kept at 22 ± 2 °C in an air-conditioned room on a 12-h light–12-h dark cycle. Before the experiments, the animals were fasted overnight with water available ad libitum. The experiments were performed in compliance with the Animal Experimentation Ethics Committee of the University of Barcelona, Spain and were approved by the Generalitat de Catalunya (trial no. CEEA 124/16 and no. 6435, respectively).
(§2) Before the experiment, the ROO (used as a vehicle to dissolve OLEA for intragastric administration) was analyzed by LC-ESI-LTQ-Orbitrap-MS to make sure it was free of phenolic compounds. The liquid–liquid extraction of phenolic compounds in the ROO was performed following previously described procedures. The chromatographic and mass spectrometer conditions were the same as used for the identification of metabolites (Section 2.6). Once the absence of phenolic compounds was confirmed, the OLEA was added to obtain a final concentration of 0.3 mg/mL. This concentration was chosen based on its concentration in commercial EVOO (around 300 mg/kg), and the daily ingestion recommended by the European Food Safety Authority of at least 5 mg of hydroxytyrosol and its derivatives per 20 g of olive oil.
(§3) The rats were divided into three different groups according to the time of euthanasia: 1 h (n = 4), 2 h (n = 5), and 4.5 h (n = 4). At 0 h, ROO loaded with OLEA standard was supplied to the rats (2.5 mL/300 g body weight) by intragastric administration. Additionally, a control group of rats was maintained under fasting conditions without olive oil ingestion and then similarly euthanized. The gavage volume was established following a good practice guide for substance administration and was lower than the maximum volume of lipid vehicles per kg of rat body weight that prevents elevated plasma corticosterone levels.
(§4) The rats were anesthetized with isoflurane (IsoFlo, veterinaria Esteve, Barcelona, Spain) and euthanized by exsanguinations at the aforementioned time points after the ROO ingestion. Blood samples were collected in EDTA tubes, centrifuged to obtain the plasma (3000× g, 10 min at 4 °C), and stored at −80 °C until analysis. The gastrointestinal tract (including stomach and small intestine), heart, spleen, thyroids, lungs, brain, kidney, and skin were removed from rats at the designated time points. All tissues were washed with saline solution (NaCl 0.9%) and dried with filter paper. In the case of the intestine, the portion removed was 15 cm from 2 cm posterior to the pyloric sphincter, and the intestine was also washed internally by perfusing the isotonic saline solution several times. Rat tissues were accurately weighed and stored at −80 °C until analysis.
(§5) For extraction, all samples were slowly thawed in ice. To avoid compound oxidation, the samples were handled in a room with filtered light and kept on ice throughout. The clean-up of the biological matrix (protein precipitation) was performed using a previously developed method.
A small tissue disruptor (T 10 basic ULTRA-TURRAX®, IKA laboratory technology, Staufen, Germany) was used to homogenize the thawed tissues in a 1:1 ratio (w/v) with water:ACN (1:1 (v/v) with 0.1% ascorbic acid). The samples were then sonicated for 5 min in an ice bath, shaken for 1 min (Vortex-Genie 2) and centrifuged for 10 min (11,000× g, 4 °C). To precipitate the proteins, a volume of 100 µL of the upper layer was blended with cold ACN acidified with formic acid (2%) in a 1:3 (v/v) ratio. After that, the samples were homogenized for 1 min and kept at −20 °C in a freezer for 20 min. Finally, the samples were centrifuged for 10 min (11,000× g, 4 °C) and 100 µL of supernatant was transferred to vials for analysis. […]

[2] = Plasma concentration of OLEA and its metabolites after intragastric administration of ROO containing OLEA (LC-ESI-LTQ-Orbitrap-MS); assay type: in vivo, male Sprague–Dawley rats
Description: as §1, §2, §3, §4, §5
Plasma samples were centrifuged for 10 min (11,000× g, 4 °C). Briefly, 100 µL of each sample was deproteinized with ice-cold ACN acidified with formic acid (2%) in a 1:5 (v/v) ratio. The samples were then homogenized for 1 min and kept at −20 °C in a freezer for 20 min. After that, samples were centrifuged (11,000× g, 4 °C, 10 min) and finally, 100 µL of each organic phase was transferred to vials for analysis.
The metabolic profile was determined by analyzing the samples with LC-ESI-LTQ-Orbitrap-MS. […]

[3] = design: method as in PMID 21411025; conditions: pH 2.0, after 4 h, partial hydrolysis releasing OH-TY; cited from earlier work
[4] = design: method as in PMID 21411025; conditions: in vivo study with rats; cited from earlier work
[5] = design: method as in PMID 30469520, PMID 10745093; conditions: moderate lipophilicity; cited from earlier work
[6] = design: method as in doi:10.1016/j.jff.2016.01.030; conditions: stomach at 1 h, another study; cited from earlier work
[7] = 1 h after intragastric OLEA 0.3 mg/mL in ROO
[8] = small intestine, 1 h after intragastric OLEA 0.3 mg/mL in ROO
[9] = small intestine, 2 h after intragastric OLEA 0.3 mg/mL in ROO
[10] = small intestine, 4.5 h after intragastric OLEA 0.3 mg/mL in ROO
[11] = stomach, 1 h after intragastric OLEA 0.3 mg/mL in ROO
[12] = stomach, 2 h after intragastric OLEA 0.3 mg/mL in ROO
[13] = stomach, 4.5 h after intragastric OLEA 0.3 mg/mL in ROO
[14] = 1 h after intragastric OLEA 0.3 mg/mL in ROO, mean ± SD
[15] = 2 h after intragastric OLEA 0.3 mg/mL in ROO, mean ± SD
[16] = 4.5 h after intragastric OLEA 0.3 mg/mL in ROO, mean ± SD
[17] = 2 h after intragastric OLEA 0.3 mg/mL in ROO
[18] = 4.5 h after intragastric OLEA 0.3 mg/mL in ROO

Molecule | Concentration in liver [1, 7] | Concentration in small intestine [1, 8] | Concentration in small intestine [1, 9] | Concentration in small intestine [1, 10] | Concentration in stomach [1, 11] | Concentration in stomach [1, 12] | Concentration in stomach [1, 13] | Concentration in plasma [2, 14] | Concentration in plasma [2, 15] | Concentration in plasma [2, 16] | Detection in heart, spleen, thyroids, lungs, brain, kidney, and skin [1] | Concentration in liver [1, 17] | Concentration in liver [1, 18] | logP [5] | other results
CC=C(C=O)C(CC=O)CC(=O)OCCc1ccc(O)c(O)c1 (stereo in doubt) [OLEA, Oleacein] | 0.28 ± 0.02 nmol OLEA equivalents/g tissue | 2.24 ± 0.14 ^a nmol OLEA equivalents/g tissue | 1.69 ± 0.25 ^b nmol OLEA equivalents/g tissue | 0.51 ± 0.10 ^c nmol OLEA equivalents/g tissue | 8.73 ± 0.29 ^a nmol OLEA equivalents/g tissue | 7.39 ± 0.25 ^b nmol OLEA equivalents/g tissue | 5.77 ± 0.54 ^c nmol OLEA equivalents/g tissue | 1.37 ± 0.20 nmol OLEA equivalents/mL and 1.37 ± 0.20 ^a nmol OLEA equivalents/mL | 0.65 ± 0.07 ^b nmol OLEA equivalents/mL | 0.67 ± 0.10 nmol OLEA equivalents/mL and 0.67 ± 0.10 ^b nmol OLEA equivalents/mL | – | – | – | – | Tissue concentration in heart ([1]; heart, 1 h after acute intake of OLEA (0.3 mg/mL) in ROO): 0.44 ± 0.07 nmol OLEA equivalents/g tissue and 0.44 ± 0.07 ^a nmol OLEA equivalents/g tissue; Tissue concentration in heart ([1]; heart, 2 h after acute intake of OLEA (0.3 mg/mL) in ROO): 0.45 ± 0.04 nmol OLEA equivalents/g tissue and 0.45 ± 0.04 ^a nmol OLEA equivalents/g tissue; Tissue concentration in heart ([1]; heart, 4.5 h after acute intake of OLEA (0.3 mg/mL) in ROO): 0.44 ± 0.06 nmol OLEA equivalents/g tissue and 0.44 ± 0.06 ^a nmol OLEA equivalents/g tissue; Concentrations detected in the heart ([1]; heart, all time points): ≤ 0.5 nmol OLEA equivalents/g tissue; Decrease of concentration in the small intestine relative to Cmax at 1 h ([1]; small intestine, at 2 h): 25%; Decrease of concentration in the small intestine relative to Cmax at 1 h ([1]; small intestine, at 4.5 h): 77%; Time of Cmax in small intestine ([1]; small intestine, sampling at 1, 2, 4.5 h): 1 h; Decrease of concentration in the stomach relative to Cmax at 1 h ([1]; stomach, at 2 h): 16%; Decrease of concentration in the stomach relative to Cmax at 1 h ([1]; stomach, at 4.5 h): 34%; Time of Cmax in stomach ([1]; stomach, sampling at 1, 2, 4.5 h): 1 h; Time of Cmax in plasma ([2]; sampling at 1, 2, 4.5 h): 1 h; OLEA remaining after incubation at pH 2.0 [3]: about 67%; Degradation in the gastric region [4]: complete degradation
elenolic acid [EA] | 1.07 ± 0.06 ^b nmol OLEA equivalents/g tissue | 1.81 ± 0.05 ^a nmol OLEA equivalents/g tissue | 0.67 ± 0.08 ^b nmol OLEA equivalents/g tissue | 0.16 ± 0.02 ^c nmol OLEA equivalents/g tissue | 7.53 ± 0.56 ^a nmol OLEA equivalents/g tissue | 4.07 ± 0.36 ^b nmol OLEA equivalents/g tissue | 1.81 ± 0.13 ^c nmol OLEA equivalents/g tissue | 0.43 ± 0.03 ^b nmol OLEA equivalents/mL | 0.76 ± 0.04 ^a nmol OLEA equivalents/mL | 0.16 ± 0.02 ^c nmol OLEA equivalents/mL | not detected | 1.34 ± 0.08 ^a nmol OLEA equivalents/g tissue | 0.76 ± 0.02 ^c nmol OLEA equivalents/g tissue | ~ 0.9 | –
OCCc1ccc(O)c(O)c1 [OH-TY, hydroxytyrosol] | 3.34 ± 0.08 ^b nmol OLEA equivalents/g tissue | 4.71 ± 0.32 ^a nmol OLEA equivalents/g tissue | 3.79 ± 0.29 ^b nmol OLEA equivalents/g tissue | 2.70 ± 0.21 ^c nmol OLEA equivalents/g tissue | 13.37 ± 1.27 ^a nmol OLEA equivalents/g tissue | 7.81 ± 0.69 ^b nmol OLEA equivalents/g tissue | 5.23 ± 0.37 ^c nmol OLEA equivalents/g tissue | – | – | – | not detected | 3.83 ± 0.21 ^a nmol OLEA equivalents/g tissue | 2.51 ± 0.07 ^c nmol OLEA equivalents/g tissue | ~ 0.9 | Share of the total metabolites identified in plasma ([2]; 1 h): 20%; Share of the total metabolites identified in plasma ([2]; 2 h): 22%; Share of the total metabolites identified in plasma ([2]; 4.5 h): 17%; concentration at 1 h ([2]; male, Sprague-Dawley, rat, oral, 2.5 mg/kg, 1 h after intragastric OLEA 0.3 mg/mL in ROO, mean ± SD): 2110 ± 100 nM; concentration at 2 h ([2]; male, Sprague-Dawley, rat, oral, 2.5 mg/kg, 2 h after intragastric OLEA 0.3 mg/mL in ROO, mean ± SD): 3020 ± 160 nM; concentration at 4.5 h ([2]; male, Sprague-Dawley, rat, oral, 2.5 mg/kg, 4.5 h after intragastric OLEA 0.3 mg/mL in ROO, mean ± SD): 1620 ± 140 nM; OH-TY concentration in stomach [6]: 8.75 ± 1.95 nmols/g digesta
